Measurements as given in ChEMBL document CHEMBL5604062, “ASAP - ZIKV NS2B-NS3 protease fluorescence dose response” (2024).
pIC50: −log10 of the molar value. Where “and” joins values, the source holds several entries; their conditions need not be identical. Equal values may be shown once.

Molecular target: Nonstructural protein 3 (Zika virus, UniProt A0A024AXB9)
Assay: Functional biochemical assay to identify treatments for viral infectious disease that targets Zika NS2B-NS3 protease. Utilizing a direct enzyme activity measurement method, reading the fluorescence intensity is used to characterize the relative potency of inhibitors as IC50.
Parameters: species or system PRVABC59

Sequence of Nonstructural protein 3 (A0A024AXB9 whole entry): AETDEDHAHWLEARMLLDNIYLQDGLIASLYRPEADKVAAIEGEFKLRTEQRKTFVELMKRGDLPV

SMILES	pIC50	IC50
Fc1cccc(F)c1-c1n[nH]cc1CN1CCC(c2nc3ccccc3s2)CC1	< 4.00	–
CC(C)CNC(=O)[C@H](Nc1cccc(-c2nn[nH]n2)c1)c1cc(Cl)cc(NC(=O)OCc2ccccc2)c1	4.51	–
NCc1cccc(NC(=O)[C@@H](NC(=O)OCc2ccccc2)c2ccc(Br)cc2)c1	4.27 and 4.26	–
CC(C)(C)OC(=O)N1Cc2ccc(NC(=O)c3ccc4c(Br)csc4c3)cc2C1	< 4.60	–
CCn1ncc2c(C(=O)Nc3ccc4c(c3)CNC4)cc(C)nc21	5.36	–
CNC(=O)c1ccnc(NC(=O)c2cc(C3CC3)n(C)c2C)c1	< 4.60	–
CC(=O)Nc1cc(Br)cc(C(=O)Nc2ccc3c(c2)CNC3)c1	7.09 and 7.16	–
O=C(O)c1ncc(F)cc1NS(=O)(=O)c1ccc(Oc2ccccc2Cl)cc1	< 4.00	–
NCc1cc(CC(=O)O)cc(NC(=O)c2cc(Cl)cc(NC(=O)OCc3ccccc3)c2)c1	5.10	–
NCc1cccc(NC(=O)C[C@H](CC(N)=O)c2ccc(F)cc2)c1	< 4.00	–
NC[C@H]1C[C@H](NC(=O)[C@@H](NC(=O)OCc2ccccc2)c2ccc(OCc3ccccc3)cc2)C1	< 4.00	–
Cc1n[nH]c2nc(Cl)cc(C(=O)Nc3ccc4c(c3)CNC4)c12	5.43	–
NCc1cccc(NC(=O)[C@H]2CC(=O)Nc3ccc(Br)cc32)c1	< 4.00	–
Cc1cc(C(=O)O)c(NS(=O)(=O)c2ccc(Oc3ccccc3Cl)cc2)cc1F	4.67	–
O=C(Nc1ccc2c(c1)CNC2)[C@H]1CCCc2[nH]ncc21	< 4.60	–
O=C(Nc1ccc2c(c1)CNC2)c1cc(Cl)cc2[nH]c(-c3nc4c(s3)CCC4)nc12	6.37	–
CC(C)c1cc(S(=O)(=O)N[C@H](C(=O)Nc2cccc(CN)c2)c2ccc(OCc3ccccc3)cc2)on1	< 4.00	–
CN(C)Cc1cc(NC(=O)[C@@H](NC(=O)OCc2ccccc2)c2ccc(OCc3ccccc3)cc2)ccc1Cl	< 4.00	–
CC[C@H]1CN(C(=O)c2ccc(C3(CN)CC3)cc2)Cc2ccccc21	< 4.00	–
O=C(O)c1cc(Cl)ccc1CS(=O)(=O)c1ccc(Oc2ccccc2Cl)cc1	< 4.00	–
CCCOc1ccc([C@@H](CC(=O)Nc2cccc(CN)c2)NC(=O)OCc2ccccc2)cc1	< 4.00 and 4.18	–
Cc1ccc(C(=O)Nc2ccc3c(c2)CNC3)c2[nH]ncc12	5.47	–
CC(C)c1ncc(OC2CCC2)c(C(=O)Nc2cccc(CN)c2)n1	< 4.00	–
NS(=O)(=O)c1ccc(N2CCC=C(c3cccc(O)c3)C2)c2ncccc12	< 4.00	–
O=C(Nc1ccc2c(c1)CNC2)c1cccc2[nH]c(C(F)(F)F)cc12	7.34 and 7.37	–
Cn1cc(C(=O)N2CCC([C@H](NC(=O)OCc3ccccc3)C(=O)Nc3cccc(CN)c3)CC2)cn1	< 4.00	–

SMILES	pIC50	IC50
c1cncc(N2CCCN(Cc3c[nH]c4ccccc34)CC2)c1	< 4.00	–
N=C(N)NCc1ccc(OC(=O)Nc2ccccc2)cc1	< 4.00	–
Cc1c(C(=O)Nc2cc(SC3COC3)ccn2)cc(C2CC2)n1C	< 4.60	–
CS(=O)(=O)NC(=O)c1cc(CN)cc([C@@H]2C[C@H]2c2cc(Cl)cc(NC(=O)OCc3ccccc3)c2)c1	< 4.00	–
O=C(Nc1cc(-c2cccnc2)ccn1)c1ccc(C2CC2)cc1	< 4.60	–
C[C@H]1CN(Cc2ccccc2)C[C@@H](C(=O)Nc2cccc(CN)c2)O1	< 4.00	–
O=C(Nc1ccc2[nH]ncc2c1)c1cc(F)cc2[nH]ncc12	< 4.60	–
C=CC[C@H](Nc1cc([C@H]2CCOC2)ccn1)c1cc(C2CC2)n(C)n1	< 4.60	–
Cc1cc(CC(=O)O)ccc1Cc1c[nH]c2ccc(Cl)cc12	< 4.00	–
C[C@@H]1CCC[C@H](C(=O)Nc2cccc(CN)c2)O1	< 4.00	–
CCCn1cc(-c2cc(Cl)cc(NC(=O)OCc3ccccc3)c2)c(C(=O)O)n1	< 4.00	–
NCc1cccc(NC(=O)[C@H]2CCCN(C(=O)CC3CC3)C2)c1	< 4.00	–
Cn1ncnc1Sc1nc(C2CCCC2)ns1	< 4.00	–
O=C(Nc1cc(Cl)cc(C(=O)NC2(c3nn[nH]n3)CCCC2)c1)OCc1ccccc1	< 4.00	–
N[C@H]1CCc2ccc(NC(=O)c3cc(Cl)cc4[nH]ncc34)cc21	5.83	–
CC(C)n1cc(C(=O)Nc2cc(-c3cccnc3)ccn2)cn1	< 4.60	–
CCCCCNC(=O)c1cc(Cl)ccc1NS(=O)(=O)c1ccc(Oc2ccccc2Cl)cc1	< 4.00	–
Cn1c(COc2ccc(S(=O)(=O)Nc3ccc(Cl)cc3C(=O)O)cc2)nnc1C1CC1	< 4.00	–
NCc1cccc(NC(=O)[C@H](NC(=O)OCc2ccccc2)c2ccc(OCc3ccncn3)cc2)c1	4.08	–
O=C(O)c1cc(Cl)ccc1S(=O)(=O)Nc1ccc(Oc2ccccn2)cc1	< 4.00	–
O=C(N[C@@H](C(=O)NCc1c[nH]cn1)c1ccc(OCc2ccccc2)cc1)OCc1ccccc1	< 4.00	–
O=C(O)c1cc2cc(-c3nccc(C(F)F)n3)ccc2[nH]1	< 4.00	–
N#CC[C@H](N)c1cccc(NC(=O)c2cc(Cl)cc(NC(=O)OCc3ccccc3)c2)c1	< 4.00	–
Cc1c(C(=O)Nc2cc(-c3cccnc3)ccn2)cc(CC(C)(C)C)n1C	< 4.60	–
O=C(Nc1ccc2c(c1)CNC2)N1C[C@H](C2CC2)C[C@@H]1C1CC1	< 4.60	–
O=C(O)c1cc(Cl)ccc1NS(=O)(=O)c1ccc(OCc2cncnc2)cc1	< 4.00	–

SMILES	pIC50	IC50
CCCN1C(=O)[C@](Nc2ccc3c(c2)CNC3)(C(N)=O)c2cc(Cl)ccc21	4.68	–
Cc1cc(=O)[nH]c(-c2cccc(NC(=O)c3cc(C4CC4)n(C)c3C)c2)n1	< 4.60	–
Cc1c(C(=O)Nc2cc(C3(C)OCCO3)ccn2)cc(C2CC2)n1C	< 4.60	–
O=C(Nc1cc(Cl)cc(C(=O)Nc2ccc3c(c2)CNCCO3)c1)OCc1ccccc1	5.11	–
Cn1ccc(COc2ccc([C@@H](NC(=O)OCc3ccccc3)C(=O)Nc3cccc(CN)c3)cc2)n1	< 4.00	–
CCc1ccc(NS(=O)(=O)c2ccc(Oc3ccccc3Cl)cc2)c(C(=O)NC)c1	< 4.00	–
O=C1Cc2c(cccc2C(=O)Nc2ccc3c(c2)CNCCO3)N1	5.83	–
O=C1c2c(O)ccc([N+](=O)[O-])c2C(=O)c2c([N+](=O)[O-])ccc(O)c21	4.24	–
COc1ccc2nc(C(F)(F)F)nc(N3CCN(c4ccc(N)nc4)CC3)c2c1	< 4.00	–
C[C@@H](NC(=O)c1ccc2[nH]cc(C=O)c2c1)C1=CCN(C)CC1	< 4.00	–
CN1C(=O)C[C@H](C(=O)Nc2cccc(CN)c2)[C@H]1c1ccc(Cl)c(Cl)c1	< 4.00	–
C[C@H]1Oc2ccc(NC(=O)c3cc(Cl)cc(NC(=O)OCc4ccccc4)c3)cc2NC1=O	< 4.00	–
CCNC(=O)c1cn(CC)c(=O)c(N2CC[C@@H](CO)C2)n1	< 4.00	–
O=Cc1ccc(N2CCC(C(=O)N3CCC(CCN4CCCC4)CC3)CC2)cc1	< 4.00	–
O=C(O)c1cc(Cl)ccc1NS(=O)(=O)c1ccc(NC2CCNCC2)nc1	< 4.00	–
O=C(Nc1cccnc1)c1cc(Cl)ccc1NS(=O)(=O)c1ccc(Oc2ccccc2Cl)cc1	< 4.00	–
O=C(Nc1ccc2c(c1)CNC2)c1cc(Cl)cc2[nH]ncc12	–	< 50 nM (2×) and 139 nM and 164 nM
O=C(Nc1ccc2c(c1)CNC2)c1cc(Cl)cc2ccncc12	7.10 and 7.15	–
NS(=O)(=O)c1cc(F)cc(C(=O)Nc2ccc3c(c2)CNC3)c1	5.83	–
O=C(Nc1ccc2c(c1)CNC2)c1cc(F)cc(-c2ccnc3c2CCO3)c1	5.92	–
Cn1cc(NC(=O)c2cc(Cl)cc(NC(=O)OCc3ccccc3)c2)cn1	< 4.00	–
Cc1ncc(C(=O)Nc2cccc(CN)c2)cc1NC(=O)OCc1ccccc1	< 4.00	–
Cc1cc(C(=O)Nc2cccc(CN)c2)nc(C)n1	< 4.00	–
CNC(=O)[C@H](Nc1cc(CN)cc(-c2nn[nH]n2)c1)c1cc(Cl)cc(C2CC2)c1	6.23	–
CC(C)(C)OC(=O)NCc1cccc(NC(=O)[C@H](NC(=O)OCc2ccccc2)C2CCNCC2)c1	< 4.00	–
CNC(=O)[C@H](Nc1cc(CN)cc(C(=O)O)c1)c1cc(Cl)cc(NC(=O)OCc2ccccc2)c1	5.94	–

SMILES	pIC50	IC50
CC[C@H]1CCN(C(=O)c2cc(Cl)ccc2NS(=O)(=O)c2ccc(Oc3ccccc3Cl)cc2)C1	< 4.00	–
c1ccc([C@H](NCc2c[nH]c3ccccc23)c2cccnc2)cc1	< 4.00	–
O=S(=O)(Nc1ccc2c(c1)CNC2)c1cccc2[nH]ncc12	< 4.60	–
CN(C)Cc1ccc(N2CCN(Cc3c[nH]c4ccccc34)CC2)nc1	< 4.00	–
O=C1Cc2c(cccc2C(=O)N[C@H]2C[C@@H](c3ncc[nH]3)C2)N1	< 4.60	–
O=C1CC[C@H]2[C@H](CCN2C(=O)c2ccc3c(c2)CNC3)N1	< 4.60	–
CNC(=O)[C@H](Nc1cccc(-c2nnn[nH]2)c1)c1cc(Cl)cc(C2CC2)c1	< 4.00	–
O=C(NCC(F)F)[C@H](Nc1ccc2c(c1)CNC2)c1cc(Br)ccc1OCc1ccccn1	6.82	–
O=C(Nc1cc([C@H]2CCOC2)ccn1)c1ccc2scnc2c1	< 4.60	–
O=C(Nc1ccc2c(c1)CNC2)c1cc(Br)cc2ccccc12	6.69	–
NCc1cccc(NC(=O)c2cc(Cl)cc3c2CCC3)c1	5.22	–
NCc1cccc([C@H](C#CCO)Nc2cc(Cl)cc(NC(=O)OCc3ccccc3)c2)c1	4.81	–
CCn1ccnc(N2CC[C@@H](Cc3ccncc3)C2)c1=O	< 4.00	–
Cc1c(C(=O)Nc2cc(C#N)cn(C)c2=O)cc(C2CC2)n1C	< 4.60	–
Cc1c(C(=O)Nc2cc(CCCN)ccn2)cc(C2CCC2)n1C	< 4.00	–
Cc1c(C(=O)Nc2cccc(CCN)c2)cc(C2CC2)n1C	4.05	–
Cc1ccc(C)n1-c1ccc(Cl)cc1C(=O)Nc1ccc2c(c1)CNC2	< 4.60	–
Cn1ncc2c(C(=O)Nc3ccc4c(c3)CNC4)cc(Cl)cc21	7.33 and 7.57	–
NCCc1cc(Cl)cc(C(=O)Nc2cccc(CN)c2)c1	6.48	–
NCc1cccc(NC(=O)c2cc(Cl)cc([C@H]3CCCCN3)c2)c1	5.14	–
O=C(Nc1cc(Cl)cc(C(=O)Nc2ccc([C@]34CNC[C@H]3C4)cc2)c1)OCc1ccccc1	4.67	–
CN(C)CCNC(=O)[C@H](Nc1cccc(-c2nn[nH]n2)c1)c1cc(Cl)cc(NC(=O)OCc2ccccc2)c1	< 4.00	–
NCc1cccc(NC(=O)[C@@H](NC(=O)OCc2ccccc2)c2ccc(OC[C@H]3CCCCO3)cc2)c1	< 4.00	–
NCc1ccccc1Oc1ccc(S(=O)(=O)Nc2ccc(Cl)cc2C(=O)NCC(F)(F)F)cc1	< 4.00	–
CCn1cc(C(=O)Nc2ccccc2)nc(N2CC[C@@H](CO)C2)c1=O	< 4.00	–
